Assay results: patent publication US6495699B2, “Metalloproteinase inhibitors, pharmaceutical compositions containing them, and their use” (Agouron Pharmaceuticals Inc., priority 1996, dated 2002)

Assays:
LogP = format: physicochemical
[1] = biological target: T1, catalytic domain of human stromelysin (Hsln) (Homo sapiens, UniProt P08254); experiment: Fluorometric MCA-peptide hydrolysis assay, stromelysin (Hsln); format: biochemical; settings: apparent Ki; 10 μM MCA peptide substrate, 37° C., pH 7.5; read-out: Hsln (Ki,app)
T1 construct: The catalytic domain of human stromelysin (Hsln) was obtained by expression and purification of a C-terminally truncated prostromelysin-1; made in house; host or cells: E. coli BL21
Method in brief: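 APMA-activated E. coli–expressed catalytic domain, with 10 μM MCA-Pro-Leu-Gly-Leu-DPA-Ala-Arg-NH2 at 37 °C. Buffer was pH 7.5 Tricine with NaCl, CaCl2, zinc acetate and 2% final DMSO; fluorescence read at ex 328/em 393 nm over 60 min. Ki,app from steady-state rates fitted to competitive or Morrison tight-binding equations.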

Human matrilysin (Matr) = biological target: T2, Human matrilysin (Matr) (Homo sapiens, UniProt P09237); experiment: Fluorometric MCA-peptide hydrolysis assay, matrilysin (Matr); format: biochemical; settings: apparent Ki; 10 μM MCA peptide substrate, 37° C., pH 7.5; read-out: Matr (Ki,app)
T2 construct: the catalytic domain was liberated by treatment with 2 mM APMA at 37° C. for 2 hours; ubiquitin (cleaved yes); made in house; host or cells: E. coli
T2 sequence (P09237 95-267): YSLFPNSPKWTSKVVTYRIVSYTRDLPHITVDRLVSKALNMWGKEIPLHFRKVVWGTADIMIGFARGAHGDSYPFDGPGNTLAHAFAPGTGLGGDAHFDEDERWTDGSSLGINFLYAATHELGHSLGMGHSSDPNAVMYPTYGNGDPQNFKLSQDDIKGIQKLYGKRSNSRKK
Method in brief: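 Catalytic domain of E. coli-expressed human matrilysin assayed at 37° C, pH 7.5 Tricine buffer, 2% DMSO, with 10 μM MCA-Pro-Leu-Gly-Leu-DPA-Ala-Arg-NH2; fluorescence ex 328/em 393 nm over 60 min. Ki,app from steady-state rates fitted to competitive inhibition or Morrison tight-binding equation.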

[2] = biological target: T3, human collagenase-3 (Coll3) (Homo sapiens, UniProt P45452); experiment: Fluorometric MCA-peptide hydrolysis assay, collagenase-3 (Coll3); format: biochemical; settings: apparent Ki; 10 μM MCA peptide substrate, 37° C., pH 7.5; read-out: Coll3 (Ki,app)
T3 construct: the catalytic domain was liberated by treatment with 2 mM APMA at room temperature overnight; ubiquitin (N, cleaved yes); made in house; host or cells: E. coli

[3] = biological target: T4, human progelatinase A (GelA), catalytic and fibronectin-like portion (Homo sapiens, UniProt P08253); experiment: Fluorometric MCA-peptide hydrolysis assay, gelatinase A (GelA); format: biochemical; settings: apparent Ki; 10 μM MCA peptide substrate, 37° C., pH 7.5
T4 construct: The catalytic and fibronectin-like portion of human progelatinase A (GelA) was expressed as a fusion protein with ubiquitin; ubiquitin; made in house; host or cells: E. coli
Method in brief: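 E. coli-expressed ubiquitin fusion of human proGelA catalytic plus fibronectin-like domains, autoactivated; 10 μM MCA-Pro-Leu-Gly-Leu-DPA-Ala-Arg-NH2, pH 7.5 Tricine/NaCl/CaCl2/Zn buffer, 2% DMSO, 37° C, 60 min. Fluorescence 328/393 nm; steady-state rates fitted to competitive inhibition or Morrison tight-binding equation giving Ki,app (≈Ki since [S]<<Km).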

[4] = Determination of inhibitor concentration in plasma after oral dosing; format: in vivo, Sprague Dawley rats; settings: Sprague-Dawley, rat plasma, dose 50 mg/kg
Experimental: The dosing solution consisted of the inhibitor dissolved in either a molar equivalent of HCl in water (vehicle A), in 60% aq. propylene glycol (vehicle B), or in 2.8 mg/mL sodium bicarbonate in 60% aqueous propylene glycol (vehicle C), yielding a final concentration that ranged from 10-15 mg/ml. Sprague Dawley rats (Hilltop Lab Animals, Scottsdale, Pa.) were dosed as a function of drug weight per body weight, usually 50 mgper kg. Blood was taken from the rats and centrifuged, and the plasma was stored in the freezer. Drug was extracted from a 50 μl plasma aliquot by adding 1 ml of acetonitrile, shaking for 2 minutes, centrifuging for 15 minutes at 4000 rpm, collecting the supernatant, and then evaporating it to dryness under a stream of nitrogen. The samples were reconstituted with 130 μl of mobile phase, shook for 2 minutes, and centrifuged for 15 minutes at 4000 rpm. The supernatant was collected and the samples were analyzed by injecting 100 μl of supernatant onto HPLC.
Quantitation of drug levels was accomplished by generating a standard curve of known drug amounts that were extracted from added plasma. Drug levels were plotted as a function of time and analyzed to provide area under the curve (AUC) and maximum concentration (Cmax) values.

[5] = biological target: T5, fibroblast collagenase-1 catalytic domain (HFC) (Homo sapiens, UniProt P03956); experiment: Fluorometric MCA-peptide hydrolysis assay, fibroblast collagenase-1 (HFC); format: biochemical; settings: apparent Ki; 10 μM MCA peptide substrate, 37° C., pH 7.5; read-out: HFC (Ki,app)
T5 construct: The catalytic domain of human collagenase-1 was expressed as a fusion protein with ubiquitin in E. coli; ubiquitin (cleaved yes); made in house; host or cells: E. coli
T5 sequence (P03956 100-269 limits assumed): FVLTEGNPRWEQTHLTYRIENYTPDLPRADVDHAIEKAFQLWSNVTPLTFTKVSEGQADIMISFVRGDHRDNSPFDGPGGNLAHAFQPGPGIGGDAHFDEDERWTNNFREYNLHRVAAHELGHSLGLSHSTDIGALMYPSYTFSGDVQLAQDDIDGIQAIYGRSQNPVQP
Experimental: The catalytic domain of human collagenase-1 was expressed as a fusion protein with ubiquitin in E. coli (see Gehring, E. R., J Biol. Chem., 1995, 270, 22507). After purification of the fusion protein, the fibroblast collagenase-1 catalytic domain (HFC) was released either by treatment with purified, active stromelysin-1 (1:50 w/w ratio), which generated nearly 100% N-terminal Phe1, or by autoprocessing the concentrated collagenase-1 fusion and then incubating at 37° C. for 1 hour. Final purification was completed using zinc chelate chromatography.
Assays were performed in assay buffer (50 mM Tricine pH 7.5, 200 mM sodium chloride, 10 mM calcium chloride, 0.5 mM zinc acetate containing 2% dimethyl sulfoxide (DMSO)) once the substrate and inhibitor were diluted into it. Stock solutions of inhibitors were prepared in 100% DMSO. Stock solutions of the substrate were prepared in 100% DMSO at a concentration of 6 mM.
The assay method was based on the hydrolysis of MCA-Pro-Leu-Gly-Leu-DPA-Ala-Arg-NH2 (American Peptide Co.) at 37° C. (see Knight, C. G. et al., FEBS, 1992, 296, 263-266). The fluorescence changes were monitored with a Perkin-Elmer LS-50B fluorimeter using an excitation wavelength of 328 nm and an emission wavelength of 393 nm. The substrate concentration used in the assays was 10 μM. The inhibitor was diluted into the assays from a solution in 100% DMSO, and controls substituted an equal volume of DMSO so that the final DMSO concentration from inhibitor and substrate dilution in all assays was 2%. […] Proper determination of steady-state rates of substrate cleavage required assay lengths of 60 minutes to allow for complete equilibration of the enzyme-inhibitor complex.
The Km for the MCA peptide substrate with the matrix metalloproteinases is quite high and exceeds its solubility under assay conditions. Consequently, the apparent Ki (Ki,app) was determined to describe the strength of inhibition. However, in this case, Ki,app would be essentially equal to Ki since [S]<<Km. For the determination of Ki,app, the concentration of the inhibitor was varied at a constant and low concentration of substrate and the steady-state rates of fluorescence change determined. In most cases absorptive quench due to the presence of ligand was not observed. For slow-binding inhibitors, onset of inhibition curves were collected for at least 45 minutes so that equilibrium was established. Steady-state rates of fluorescence change were obtained by fitting a curve to an equation for a single exponential decay containing a linear phase. The fitted value of the linear phase was taken as the steady-state rate. The steady-state rates were fitted to the Michaelis equation describing competitive inhibition by non-linear methods. Data resulting from tight-binding inhibition was analyzed, and Ki,app determined by fitting the data to the tight-binding equation of Morrison (Biochem. Biophys. Acta, vol. 185, pp. 269-286 (1969)) by non-linear methods.

[6] = vehicle A (molar equivalent of HCl in water)
[7] = vehicle B (60% aq. propylene glycol)

T4 sequence (P08253 110-465 limits assumed): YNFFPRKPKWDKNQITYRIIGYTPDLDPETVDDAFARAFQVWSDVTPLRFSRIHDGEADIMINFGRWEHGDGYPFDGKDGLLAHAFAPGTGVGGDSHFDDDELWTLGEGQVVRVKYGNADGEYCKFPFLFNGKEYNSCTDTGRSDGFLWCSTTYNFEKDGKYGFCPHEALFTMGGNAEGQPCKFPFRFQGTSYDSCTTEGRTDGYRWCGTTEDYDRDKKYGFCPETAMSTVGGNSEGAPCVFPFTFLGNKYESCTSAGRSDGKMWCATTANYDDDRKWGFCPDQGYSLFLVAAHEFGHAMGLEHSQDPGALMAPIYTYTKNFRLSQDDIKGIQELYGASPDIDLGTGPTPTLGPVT
T1 sequence (P08254 100-272 limits assumed): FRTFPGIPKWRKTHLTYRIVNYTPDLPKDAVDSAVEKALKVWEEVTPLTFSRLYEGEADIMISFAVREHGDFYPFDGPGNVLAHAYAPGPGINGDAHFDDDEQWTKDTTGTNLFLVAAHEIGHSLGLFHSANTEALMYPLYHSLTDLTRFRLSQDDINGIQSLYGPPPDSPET

Row | Structure (SMILES) | logP (LogP) | Ki [1] | Ki (Human matrilysin (Matr)) | Ki [2] | GelA (Ki,app) [3] | melting point | AUC [4, 6] | Cmax [4, 6] | Ki [5] | AUC [4, 7] | Cmax [4, 7]
1 | O=C(O)C[C@H](C(=O)N[C@H]1Cc2cn(c3ccccc23)CCOCCNC1=O)n1ccc(-c2ccccc2)c1 [Example 1(c), N-(8-Oxo-4-oxa-1,7-diazatricyclo[9.6.1.0^12,17]octadeca-11(18), 12,14,16-tetraen-9(S)-yl)-3(R)-(3-phenyl-1H-pyrrol-1-yl)succinamic Acid] | -0.97 | 486 nM | 16900 nM | 0.868 nM | 2 nM | – | – | – | – | – | –
2 | CC(C)(C)[C@@H](CO)NC(=O)[C@@H](CC(=O)O)n1ccc(-c2ccc(-c3ccncc3)cc2)c1 [Example 5(a), N-[2,2-Dimethyl-1(S)-(hydroxymethyl)propyl]-3(R)-[3-[4-(pyridin-4-yl)phenyl]-1H-pyrrol-1-yl]succinamic Acid] | 0.11 | 84 nM | – | 1.8 nM | 1.6 nM | 192 to 194 °C | 3520 ng·h/mL | 1600 ng/mL | – | – | –
3 | CNC(=O)[C@@H](NC(=O)[C@@H](CC(=O)O)n1ccc(-c2ccc(-c3ccccc3)cc2)c1)C(C)(C)C [Example 1(e), 3(R)-[3-(Biphenyl-4-yl)-1H-pyrrol-1-yl]-N-[2,2-dimethyl-1(S)-(methylcarbamoyl)propyl]succinamic Acid] | 1.19 | 3.1 nM | 500 nM | 0.9 nM | 0.108 nM | – | – | – | – | – | –
4 | CNC(=O)[C@@H](NC(=O)[C@@H](CC(=O)O)n1ccc(-c2ccc(-c3ccc(C(N)=O)cc3)cc2)c1)C(C)(C)C [Example 5(e), 3(R)-[3-(4′-Carbamoylbiphenyl-4-yl)-1H-pyrrol-1-yl]-N-(2,2-dimethyl-1(S)-(methylcarbamoyl)propyl)succinamic Acid] | 1.71 | 1.7 nM | 182 nM | 0.076 nM | 0.109 nM | – | – | – | 530 nM | – | –
5 | CNC(=O)[C@@H](NC(=O)[C@@H](CC(=O)O)n1ccc(-c2ccccc2)c1)C(C)(C)C [1(b), N-[2,2-Dimethyl-1(S)-(methylcarbamoyl)propyl]-3(R)-(3-phenyl-1H-pyrrol-1-yl)succinamic acid] | -0.83 | 2000 nM | – | 18.3 nM | 5.91 nM | – | – | – | – | – | –
6 | CNC(=O)[C@@H](NC(=O)[C@@H](CC(=O)O)n1ccc(-c2ccc(C#N)cc2)c1)C(C)(C)C [Example 1(m), 3 (R)-[3-(4-Cyanophenyl)-1H-pyrrol-1-yl]-N-[2,2-dimethyl-1(S)-(methylcarbamoyl)propyl]succinamic Acid] | – | 50 nM | – | 1 nM | 0.41 nM | 138 to 140 °C | – | – | 997 nM | 967 ng·h/mL | 590 ng/mL
7 | CC(C)(C)[C@H](NC(=O)[C@@H](CC(=O)O)n1ccc(-c2ccc(-c3ccc(C(N)=O)cc3)cc2)c1)C(=O)Nc1ccncc1 [Example 5(f), 3(R)-[3-(4′-Carbamoylbiphenyl-4-yl)-1H-pyrrol-1-yl]-N-[2,2-dimethyl-1(S)-(N-(pyridin-4-yl)carbamoyl)propyl]succinamic Acid] | 2.56 | 0.46 nM | 2.1 nM | 0.012 nM | 0.023 nM | 194 to 196 °C | – | – | 818 nM | – | –
